Data: US9657035B1, “Method of treating cancer and gold(III) complexes as anti-cancer agents” (KING FAHD UNIVERSITY OF PETROLEUM AND MINERALS, priority 2015, dated 2017)

Tests used:
[1] = Kinetics of substitution reaction of gold(III) complexes with glutathione (UV-vis, 297 nm); assay type: physicochemical; conditions: for second-order rate constant k for the reaction with GSH: at 298K, 20 mM NaCl, 297 nm; for ΔH^† activation enthalpy, reaction with GSH / ΔS^† activation entropy, reaction with GSH: from Eyring plots
Method: All kinetics measurements were made using a UV-vis spectrophotometer (Agilent Technologies, Cary 100 UV-Vis). Scanning kinetic mode was used to investigate the change in the electronic spectra for gold(III) complexes upon interaction with GSH to determine the effective wavelength for the reactions. Then, the kinetic mode was used to monitor the reaction progress at the selected wavelength. A solution containing 0.2 mM gold(III) complexes was prepared in water, and 40 mM sodium chloride was added to improve the stability of the mononuclear-gold(III) complexes by preventing hydrolysis of the chlorides (A. Djeković, B. Petrović, Z. D. Bugarcić, R. Puchta, and R. van Eldik, Dalton Trans., vol. 41, no. 13, pp. 3633-41, 2012, incorporated herein by reference in its entirety). A series of GSH solutions was also prepared. Equal volumes of gold(III) complex solution and GSH solution were mixed, and the spectral changes recorded using the scanning kinetic mode in the range from 200 nm to 350 nm. Then, the kinetic mode was used to follow the reaction at three different temperatures. The reaction between the gold(III)-diamine complexes and the GSH ligand to form gold(III)-complexes can be illustrated in following equation: […]
The rate (k) of the described reactions can be calculated from the slope of the linear plot of kobs versus GSH concentration according to eqn (1), where the rate of the reverse reaction (k−1) is obtained from the intercept of the straight line. kobs=k[GSH]+k−1[Cl] Eqn (1)
Using Microsoft Excel, the rate constants and activation parameters were calculated from Eyring plots: […]
The kinetics of the substitution reaction between the synthesized anticancer gold(III) complexes 1 and 2 with tripeptide glutathione were investigated spectrophotometrically by monitoring the spectral changes of the gold(III) complexes in solution with excess of GSH. […] Equal volumes of the gold(III) complexes and GSH were kept until thermal equilibration was achieved and then mixed directly inside a UV cell. The changes in the absorption at a selected wavelength (297 nm) under pseudo-first order conditions as functions of the glutathione concentration and temperature were collected. The […] rate constant (k) was obtained from the linear plot of kobs versus the total GSH concentration (1). NaCl was added in excess to avoid the hydrolysis of mononuclear-gold(III) diamine chloride, but this was not found to be effective for complex 2 (FIG. 2).

[2] = tested on: classical Hodgkin lymphoma L-540 cell line; experiment: In vitro cytotoxicity, trypan blue dye exclusion, 72 h; assay type: cell-based, human; conditions: L-540 cells; for IC50: trypan blue assay
Method: Complexes 1 and 2 were dissolved (10 mM) in DMSO and stored at −80° C. at volumes of 500 μL or aliquots with volumes of 10 μL were taken and stored at −20° C. (used once without refreezing). The compounds were then diluted in RPMI medium immediately before use. Cisplatin was purchased from Mayne Pharma. Culture medium with the same amount of drug-free DMSO was used as a negative control.
The classical Hodgkin lymphoma L-540 cell line was obtained from the German Collection of Microorganisms and Cell Cultures (Braunschweig, Germany). Human ovarian epithelial carcinoma-derived cancer cells A2780 and its cisplatin-resistant clone A2780cis were from Sigma, Inc. (St. Louis, Mo., USA). The parent cisplatin-resistant subclone A2780cis was maintained by weekly treatment with 1 μM cisplatin (N. Casagrande, M. Celegato, C. Borghese, M. Mongiat, A. Colombatti, and D. Aldinucci, Clin. Cancer Res. vol. 20, pp. 5496-5506, 2014, incorporated herein by reference in its entirety). Cells were cultured at 37° C. in 5% CO2 in RPMI medium supplemented with 10% heat-inactivated FBS, 0.1% (w/v) L-glutamine and antibiotics (0.2 mg/mL penicillin and streptomycin).
For the cell proliferation assay, 4.0×10^3 A2780 and A2780cis cells were seeded in 96-well flat-bottomed microplates in RPMI medium (100 μL) and incubated at 37° C. in a 5% CO2 atmosphere for 24 h (to allow cell adhesion) before drug testing. The medium was then removed and replaced with fresh medium containing the compounds to be tested and cisplatin at increasing concentrations (from 1 to 100 μM) at 37° C. for 72 h. Each treatment was performed in triplicate. Cell proliferation was assayed using the MTT assay. L-540 cells (2.0×10^5/ml) were seeded in 48-well plates and treated with increasing concentrations of complex 1 and complex 2. After 72 hours, the number of viable cells was evaluated by a trypan blue dye exclusion. […]

[3] = tested on: cisplatin-resistant clone A2780cis; experiment: Cell proliferation MTT assay, 72 h; assay type: cell-based, human; conditions: for IC50: A2780cis cells, 72 h, MTT, mean±SEM; for Fold resistance A2780cis/A2780 ratio: ratio of IC50 A2780cis to A2780
Method: (§1) Complexes 1 and 2 were dissolved (10 mM) in DMSO and stored at -80° C. at volumes of 500 μL or aliquots with volumes of 10 μL were taken and stored at -20° C. (used once without refreezing). The compounds were then diluted in RPMI medium immediately before use. Cisplatin was purchased from Mayne Pharma. Culture medium with the same amount of drug-free DMSO was used as a negative control. The classical Hodgkin lymphoma L-540 cell line was obtained from the German Collection of Microorganisms and Cell Cultures (Braunschweig, Germany). Human ovarian epithelial carcinoma-derived cancer cells A2780 and its cisplatin-resistant clone A2780cis were from Sigma, Inc. (St. Louis, Mo., USA). The parent cisplatin-resistant subclone A2780cis was maintained by weekly treatment with 1 μM cisplatin ([…]. Celegato, C. Borghese, M. Mongiat, A. Colombatti, and D. Aldinucci, Clin. Cancer Res. vol. 20, pp. 5496-5506, 2014, incorporated herein by reference in its entirety). Cells were cultured at 37° C. in 5% CO2 in RPMI medium supplemented with 10% heat-inactivated FBS, 0.1% (w/v) L-glutamine and antibiotics (0.2 mg/mL penicillin and streptomycin). For the cell proliferation assay, 4.0×10^3 A2780 and A2780cis cells were seeded in 96-well flat-bottomed microplates in RPMI medium (100 μL) and incubated at 37° C. in a 5% CO2 atmosphere for 24 h (to allow cell adhesion) before drug testing. The medium was then removed and replaced with fresh medium containing the compounds to be tested and cisplatin at increasing concentrations (from 1 to 100 μM) at 37° C. for 72 h. Each treatment was performed in triplicate. Cell proliferation was assayed using the MTT assay. L-540 cells (2.0×10^5/ml) were seeded in 48-well plates and treated with increasing concentrations of complex 1 and complex 2. After 72 hours, the number of viable cells was evaluated by a trypan blue dye exclusion. The IC50 values (i.e., the half maximal inhibitory concentration, representing the concentration of a substance required for 50% inhibition in vitro) were calculated using CalcuSyn software (Biosoft, Ferguson, Mo., USA) (T. C. Chou, and P. Talalay, Adv. Enzyme Regul. vol. 22, pp. 27-55, 1984, incorporated herein by reference in its entirety). The results were presented as the mean±SEM of three replicate wells from three independent experiments. The cells were imaged under an inverted microscope (Eclipse TS/100, Nikon) with a photomicrographic system (DS Camera Control Unit DS-L2). Phase contrast micrographs were taken at a magnification of 4× (for L-540 cells) and 10× (for A2780 and A2780cis cells).

[4] = tested on: ovarian epithelial carcinoma-derived cancer cells A2780; experiment: Cell proliferation MTT assay, 72 h; assay type: cell-based, human; conditions: mean±SEM
Method: as §1

| Compound | Ea activation energy, reaction with GSH [1] | second-order rate constant k for the reaction with GSH [1] | ΔH^† activation enthalpy, reaction with GSH [1] | ΔS^† activation entropy, reaction with GSH [1] | fold more active than complex 1 (L-540 IC50) [2] | IC50 [2] | IC50 [3] | Fold resistance A2780cis/A2780 ratio [3] | IC50 ([4]; listed as 2) | IC50 ([4]; listed as (2)) | Fold resistance A2780cis/A2780 ratio ([3]; listed as cisplatin) | IC50 [4] |
| --- | --- | --- | --- | --- | --- | --- | --- | --- | --- | --- | --- | --- |
| NC1CCCCC1N.NC1CCCCC1N.[Au+3].[Cl-].[Cl-].[Cl-] [Complex 2, 1(R),2(R)-[(DACH)2Au]Cl3] | 19 kJ/mol | 0.31 M⁻¹ s⁻¹ | 17 kJ/mol | −189 JK^−1mol^−1 | 7 fold | 9.8 µM | 31.1 µM | 4.45 | 6.98 µM | 6.9 ± 0.6 µM | – | – |
| N.N.[Cl][Pt][Cl] [Cisplatin, reference compound] | – | – | – | – | – | – | 17.6 µM | 9.77 | – | – | 9.7 | 1.8 µM |
| NC1CCCCC1N.[Au+3].[Cl-].[Cl-].[Cl-] [Complex 1, 1(R),2(R)-[(DACH)AuCl2]Cl] | 32 kJ/mol | 1.14 M⁻¹ s⁻¹ | 30 kJ/mol | −137 JK^−1mol^−1 | – | 70.4 µM | 61.3 µM | 3.90 | – | – | – | 15.7 µM |
